The source of these data is patent publication US12145933B2, “Hemi (L)-tartrate forms of 3-({5-chloro-1-[3-(methylsulfonyl)propyl]-1H-indol-2-yl}methyl)-1-(2,2,2-trifluoroethy)-1,3-dihydro-2H-imidazo[4,5-C]pyridin-2-one and pharmaceutical compositions comprising the same” (Janssen Sciences Ireland Unlimited Company, priority 2020, dated 2024).

What all share (type): physicochemical
Series [1] can be described thus: Equilibrium (thermodynamic) solubility in fed state human intestinal fluids. The following applies: for solubility Conc / solubility at 24 h: Fed HR pool human intestinal fluids, 37° C., 24 hours; for solubility at 24 h: human, 37 °C, plasma or biological fluid, thermodynamic from solid. As to the method: Determination of the equilibrium solubility of rilematovir in its free base form and its hemi (L)-tartrate form in fed state human intestinal fluids.
The thermodynamic solubility of rilematovir and the hemi (L)-tartrate form of rilematovir was determined using human intestinal fluids obtained from human volunteers in fed state. The pools of human intestinal fluids were prepared from individual intestinal aspirates collected among healthy volunteers under fed state conditions. Fed HR (high responders) pools were build up from duodenal samples in the fed state from volunteers with a clear postprandial bile salt increase.
A small magnetic stirrer bar (about 5 mm in length) and 300 μl of the respective human intestinal fluids at 37° C. were added to the Eppendorf tubes containing an excess of test compound. The mixtures were vortexed for a few seconds and placed on a magnetic stirrer plate (100 rpm) at 37° C.
After 24 hours, the Eppendorf tubes were centrifuged for 5 minutes at 12000 rpm (to separate dissolved from non-dissolved material). 10 µl of the supernatant was diluted into 100 μl methanol), well mixed and centrifuged for 1 minute to separate precipitated protein fraction. The test compound was quantified in the resulting supernatant using UPLC-UV quantification.
The pH was measured at the end of the experiment for each condition (pHend in Table 1).

Series [2] in a line: Kinetic solubility in biorelevant media (FaSSIF, FeSSIF) with and without HPMC E5. The settings on record: for solubility kinetic at 30 min / solubility kinetic at 60 min / solubility kinetic at 120 min: thermodynamic from solid, as μg rilematovir/mL; for solubility kinetic at 30 min: read-out: kinetic solubility, concentration at 30 minutes; for solubility kinetic at 60 min: read-out: kinetic solubility, concentration at 60 minutes; for solubility kinetic at 120 min: read-out: kinetic solubility, concentration at 120 minutes. As to the method: The kinetic solubility of rilematovir and the hemi (L)-tartrate form of rilematovir in different biorelevant medium (FaSSIF and FeSSIF) in the presence or absence of HPMC E5 was analysed.
An excess amount of rilematovir or the hemi (L)-tartrate form of rilematovir was added to biorelevant medium (approximately 5 mg solid/mL medium was used).
The media were stirred at 150 rpm at a temperature of 37° C. Time-dependent measurements were performed by removing 10 mL aliquots after 30 minutes, 1 hour and 2 hours. Undissolved solid material in the aliquot was removed using a Whatman SPARTAN RC syringe filter (diameter: 30 mm; pore size: 0.2 μm). Afterwards, a suitable dilution was made in NMP/water 30/70; v/v to avoid precipitation. The concentration of rilematovir, or the hemi (L)-tartrate form of rilematovir, in solution was determined using UPLC-UV.

Series [3] is described as follows: Intrinsic dissolution rate (IDR), μDISS Profiler. The following applies: for IDR: 37.0 ± 0.5° C., 100 rpm. As to the method:
The intrinsic dissolution rate (IDR) describes how fast a compound is released from its solid-state form into solution. The intrinsic dissolution rate is defined as the rate of dissolution of a pure active pharmaceutical ingredient when surface area, stirring speed, pH and ionic-strength of the dissolution medium are kept constant. Thus, it is measured as the release of API from a flat and well-defined surface area into an aqueous solution at a given pH value. By exposing the surface area of a material to an appropriate dissolution medium while maintaining constant temperature, stirring rate, and pH, the intrinsic dissolution rate can be determined. Typically the intrinsic dissolution is expressed in terms of mg per minute per cm^2.
Intrinsic Dissolution Method Parameters:
Pellet Compression Parameters

The nature of series [4]: Long term storage of liquid aqueous suspension (disproportionation, polymorph conversion). As to the method:
A liquid aqueous suspension comprising Form 1 of the hemi (L)-tartrate form of rilematovir as described in Examples 10, 11, 14 or 15 was stored in a sealed glass vial at a temperature of 30° C., 40° C., and 50° C. Over a period of 8 months samples were taken and analysed (e.g. by XPRD or solid state ^19F-NMR spectroscopy).
FIG. 6 is the solid state ^19F-NMR spectrum of Form 1 having peaks at −70.004 ppm and −73.248 ppm. FIG. 7 is the solid state ^19F-NMR spectrum of Form 3 having a peak at −70.122 ppm.

[5] abbreviates: aqueous with cosolvent or surfactant or cyclodextrin, FaSSIF pH 6.5, HPMC E5 1.39 mg/mL, 37° C.
The mark [6] stands for this setting: aqueous with cosolvent or surfactant or cyclodextrin, FeSSIF pH 5.0, HPMC E5 1.39 mg/mL, 37° C.
The mark [7] stands for this setting: FaSSIF pH 6.5, no HPMC E5, 37° C.
Setting [8] is: FeSSIF pH 5.0, no HPMC E5, 37° C.
The mark [9] stands for this setting: FaSSIF with HPMC E5, aqueous with cosolvent or surfactant or cyclodextrin, FaSSIF pH 6.5, HPMC E5 1.39 mg/mL, 37° C.
Where [10] appears, read: FeSSIF with HPMC E5, aqueous with cosolvent or surfactant or cyclodextrin, FeSSIF pH 5.0, HPMC E5 1.39 mg/mL, 37° C.

Converted amounts (≈) assume the structure as drawn. “And” between values parts separate entries of the source, which are not always exact repeats. Equal values may be shown once. “Also recorded” adds a separate entry of the source. Read-outs that look alike come from different tables or passages of the source.

In the case of `CS(=O)(=O)CCCn1c(Cn2c(=O)n(CC(F)(F)F)c3ccncc32)cc2cc(Cl)ccc21.O=C(O)C(O)C(O)C(=O)O` [hemi (L)-tartrate form of rilematovir], the “solubility Conc” value in series [1] (single determinations, listed as hemi tartrate form) is 122.93 µg/mL and 126.92 µg/mL. In addition, the “solubility in fed state human intestinal fluids relative to free base form” value in series [1] (fed state human intestinal fluids) was “more than three times higher”. Also, the solubility at 24 h is 117 µg/mL in series [1] (average of three, read-out: solubility Average) and 102 µg/mL in series [1] (single determinations, read-out: solubility Conc). In addition, the solubility kinetic at 30 min in series [2] (setting [5]) worked out at 108 µg/mL; in series [2] (setting [6]), 1010 µg/mL; in series [2] (setting [7]) it was 4.4 µg/mL; in series [2] (setting [8]), 82.8 µg/mL. For the same compound, the solubility kinetic at 60 min amounted to 93.1 µg/mL in series [2] (setting [5]), 853 µg/mL in series [2] (setting [6]), 3.4 µg/mL in series [2] (setting [7]) and 67.1 µg/mL in series [2] (setting [8]). The solubility kinetic at 120 min in series [2] (setting [5]) was 75.9 µg/mL; in series [2] (setting [6]) it was 689 µg/mL; in series [2] (setting [7]), 3 µg/mL; in series [2] (setting [8]), 58.6 µg/mL. In addition, the “kinetic solubility relative to free base” value in series [2] (biorelevant media, absence of the suspending agent HPMC) is “three (in FaSSIF) to six (in FeSSIF) times higher”. Also, the IDR is given as 147 μg/min/cm^2 in series [3] (Medium: 0.01N HCl), 5.45 μg/min/cm^2 in series [3] (Medium: Blank FaSSIF) and 2.10 μg/min/cm^2 in series [3] (Medium: FASSIF). The “intrinsic dissolution rate (IDR) compared with free base form” value in series [3] (three biorelevant media) is “higher than the free base form of rilematovir”. Besides, the “disproportionation in liquid aqueous suspension” value in series [4] (sealed glass vial, 30° C., 40° C., 50° C., 8 months, XRPD or solid state 19F-NMR) is on record as “does not disproportionate; also recorded: no disproportionation has been observed”. Moreover, the “polymorph conversion in liquid aqueous suspension” value in series [4] (storage of aqueous suspension over time, XRPD and solid state 19F-NMR) was “over time Form 1 converts into Form 3”.

Consider `CS(=O)(=O)CCCn1c(Cn2c(=O)n(CC(F)(F)F)c3ccncc32)cc2cc(Cl)ccc21` [rilematovir, 3-({5-chloro-1-[3-(methylsulfonyl)propyl]-1H-indol-2-yl}methyl)-1-(2,2,2-trifluoroethyl)-1,3-dihydro-2H-imidazo[4,5-c]pyridin-2-one], for which, in series [1] (single determinations, listed as free base), the “solubility Conc” value is 36.80 µg/mL and 32.50 µg/mL. For the same compound, the solubility at 24 h in series [1] (fed state human intestinal fluids (Fed HR pool), average of three, read-out: solubility Average) came to 34.4 µg/mL (≈ 68.7 µM); in series [1] (fed state human intestinal fluids (Fed HR pool), single determinations, read-out: solubility Conc), 34 µg/mL (≈ 67.8 µM). Further, the solubility kinetic at 30 min worked out at 1.2 µg/mL (≈ 2.4 µM) in series [2] (setting [9]), 12.3 µg/mL (≈ 24.6 µM) in series [2] (setting [10]), 1.1 µg/mL (≈ 2.2 µM) in series [2] (setting [7]) and 12.5 µg/mL (≈ 25 µM) in series [2] (setting [8]). Further, the solubility kinetic at 60 min stood at 1.3 µg/mL (≈ 2.6 µM) in series [2] (setting [9]), 13.4 µg/mL (≈ 26.8 µM) in series [2] (setting [10]), 1.1 µg/mL (≈ 2.2 µM) in series [2] (setting [7]) and 13.2 µg/mL (≈ 26.4 µM) in series [2] (setting [8]). In addition, the solubility kinetic at 120 min was 1.5 µg/mL (≈ 2.99 µM) in series [2] (setting [9]), 13.9 µg/mL (≈ 27.7 µM) in series [2] (setting [10]), 1.2 µg/mL (≈ 2.4 µM) in series [2] (setting [7]) and 13.7 µg/mL (≈ 27.3 µM) in series [2] (setting [8]). The IDR is 8.98 μg/min/cm^2 in series [3] (Medium: 0.01N HCl), 3.06 μg/min/cm^2 in series [3] (Medium: Blank FaSSIF) and <1 μg/min/cm^2 in series [3] (Medium: FASSIF).

For `CS(=O)(=O)CCCn1c(Cn2c(=O)n(CC(F)(F)F)c3ccncc32)cc2cc(Cl)ccc21.CS(=O)(=O)CCCn1c(Cn2c(=O)n(CC(F)(F)F)c3ccncc32)cc2cc(Cl)ccc21.O=C(O)C(=O)O` [hemi oxalic co-crystal], the IDR in series [3] (Medium: 0.01N HCl) is reported as 32.77 μg/min/cm^2; in series [3] (Medium: Blank FaSSIF) it was 1.62 μg/min/cm^2; in series [3] (Medium: FASSIF) it was 1.18 μg/min/cm^2.
